Experimental data: patent US20110071129A1, “SPIRODIAMINE-DIARYL KETOXIME DERIVATIVE” (priority 2008, published 2011)

These molecules were tested against T1, human MCH-1R (Homo sapiens, UniProt Q99705) (assay: MCH binding inhibition test). Settings: inhibition of specific [125I]MCH (50 pM) binding; membranes of MCH-1R expressing CHO-K1 cells; 25° C., one hour.
T1 construct: expressed in transfected cells; host or cells: CHO-K1 (American Type Culture Collection), vector pEF/myc/cyto; membranes used
Protocol: A human MCH-1R encoding cDNA sequence [FEBS Letters, Vol. 398, 253 (1996); Biochimica et Biophisica Acta, Vol. 1401, 216 (1998)] was cloned to a plasmid vector pEF/myc/cyto (by Invitrogen Corporation). The obtained expression vector was transfected to host cells CHO-K1 (American Type Culture Collection) using Lipofectamine Plus Reagent (by Life Technology Inc.) to provide MCH-1R expression cells.
Membrane samples prepared from the MCH-1R expression cells were incubated with each test compound and 50 pM of [^125I]MCH (by NEN Co.), in an assay buffer (50 mM Tris buffer comprising 10 mM magnesium chloride, 2 mM ethylenediamine tetraacetate, 0.01% bacitracin and 0.2% bovine serum albumin; pH 7.4) at 25° C. for an hour, followed by filtration through a glass filter GF/C (by Wattman Co.). After washing the glass filter with 50 mM Tris buffer (pH 7.4) comprising 10 mM magnesium chloride, 2 mM ethylenediamine tetraacetate and 0.04% Tween-20, the radioactive activity on the glass filter was measured. The non-specific binding was measured in the presence of 1 μM human MCH, and the 50% inhibition concentration (IC50 value) of each test compound to the specific [^125I]MCH binding was determined.

T1 sequence (Q99705 whole entry): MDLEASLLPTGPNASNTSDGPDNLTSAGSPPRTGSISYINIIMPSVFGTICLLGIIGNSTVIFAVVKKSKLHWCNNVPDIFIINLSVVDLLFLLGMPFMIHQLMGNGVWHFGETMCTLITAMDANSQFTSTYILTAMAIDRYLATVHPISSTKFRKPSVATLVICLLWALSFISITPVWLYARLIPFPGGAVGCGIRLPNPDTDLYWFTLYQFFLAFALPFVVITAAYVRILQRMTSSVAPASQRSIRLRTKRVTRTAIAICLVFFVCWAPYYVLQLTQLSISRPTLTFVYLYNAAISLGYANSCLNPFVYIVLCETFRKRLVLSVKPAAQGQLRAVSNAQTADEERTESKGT

SMILES | IC50
CCO/N=C(\c1ccc(F)c(F)c1)c1ccc(CN2CC3(CCN(c4ccc(F)nc4)C3)C2)cn1 [Example 1-10, (E)-(3,4-difluorophenyl)(5-{[6-(6-fluoro-3-pyridinyl)-2,6-diazaspiro[3.4]oct-2-yl]methyl}-2-pyridinyl)methanone O-ethyloxime] | 7.6 nM
CCO/N=C(\c1ccc(F)c(F)c1)c1ccc(CN2CCC3(CCN(c4ccnnc4)C3)C2)cn1 (centres unmarked) [Example 2-3, (E)-(3,4-difluorophenyl)(5-{[7-(4-pyrazinyl)-2,7-diazaspiro[4.4]non-2-yl]methyl}-2-pyridinyl)methanone O-ethyloxime] | 3.2 nM
CCO/N=C(\c1ccc(F)c(F)c1)c1ccc(CN2CC3(C2)CN(c2ccnc(C)c2)C3)cn1 [Example 2-24, (E)-(3,4-difluorophenyl)(5-{[6-(2-methyl-4-pyridinyl)-2,6-diazaspiro[3.3]hept-2-yl]methyl}-2-pyridinyl)methanone O-ethyloxime] | 2.4 nM
CCO/N=C(\c1ccc(F)c(F)c1)c1ccc(CN2CC3(C2)CN(c2ccn4ccnc4c2)C3)cn1 [Example 2-40, (E)-(3,4-difluorophenyl){5-[(6-imidazo[1,2-a]pyridin-7-yl-2,6-diazaspiro[3.3]hept-2-yl)methyl]-2-pyridinyl}methanone O-ethyloxime] | 0.9 nM
CCCc1cnc2cc(N3CC4(CN(Cc5ccc(/C(=N/OCC)c6ccc(F)c(F)c6)nc5)C4)C3)ccn12 [Example 2-44, (E)-(3,4-difluorophenyl)(5-{[6-(3-propylimidazo[1,2-a]pyridin-7-yl)-2,6-diazaspiro[3.3]hept-2-yl]methyl}-2-pyridinyl)methanone O-ethyloxime] | 0.36 nM
